Test results as given in patent US20080306155A1, “METHOD FOR TREATING RENAL DISEASE” (priority 2004, published 2008).
Entries after “also recorded” stand apart in the source; their conditions may differ.

Assays:
isolated glomeruli = assay: Albumin permeability (Palb) of isolated glomeruli; type: cell-based, rat; conditions: for increase in Palb produced by TGF-•1 after pretreatment of glomeruli: pretreated with 1 μmol/L for 15 minutes at 37° C., then TGF-•1 10 ng/ml
Description: Measurement of Albumin Permeability (Palb): Glomeruli were isolated using the sieving method as previously described in a medium containing 5 g/dl of bovine serum albumin (BSA). See, Sharma R, et al, Kidney Intl. 58:131-136 (2000); and Savin V, et al. J. Am. Soc. Nephrol. 3:1260-1269 (1992). In each experimental condition, Palb was determined from the change in glomerular volume (•V) after exchange of the bath with medium containing 1 g/dl albumin. Palb was calculated as 1−(•Vexperimental/•Vcontrol) where glomeruli from SD rats fed a normal-salt diet were used to provide the control value for each experiment. To verify that lack of •Vs in Dahl S rats were related to changes in Palb rather than to changes in mechanical properties of glomeruli, additional studies were performed in which the glomeruli were exposed to a 5% solution of high molecular weight dextran.
In other experiments, we examined the interaction of TGF-• and 20-HETE on Palb in glomeruli isolated from SD rats and Dahl S rats fed either a LS diet or a HS diet for 4 days. Glomeruli were preincubated with vehicle or TGF-•1 (10 ng/ml) for 15 minutes at 37° C. and changes in Palb were determined. Glomeruli were also pretreated with 5, 14-20-HEDE (WIT003) (1 μmol/L; Taisho Pharmaceutical; Tokyo, Japan) (Alonso-Galicia et al., supra; and Yu et al., supra), for 15 minutes at 37° C. and the Palb response to TGF-• 1 (10 ng/ml) was redetermined. A minimum of 5 glomeruli from each rat were studied, and the experiments were performed using •5 rats per treatment group.

[1] = system: renal ischemia-reperfusion injury in SD rats; assay: Renal ischemia-reperfusion injury model (Example 2); type: in vivo, rat; conditions: 30 min ischemia, 24 h reperfusion; for degree of renal I/R injury reflected by rise in plasma creatinine concentration: HET0016 5 mg/kg s.c., WIT003 10 mg/kg s.c., 30 min prior, vs vehicle
Description: Renal Ischemia-Reperfusion Injury Model: Experiments were performed in male SD rats anesthetized with pentobarbital (50 mg/kg). The kidneys were exposed via a midline incision and the renal arteries isolated. Adjustable vascular occluders were placed on both the right and left renal arteries to completely occlude blood flow to the kidneys for 30 minutes. After the period of complete renal ischemia, the clamps were removed and the kidneys were reperfused. The surgical incisions were closed with 2-0 silk suture and the animals were allowed to fully recover from anesthesia. Twenty four hours later, the rats were reanesthetized with pentobarbital, and a sample of blood collected from the aorta for measurement of plasma creatinine concentration using an autoanalyzer. The kidneys were collected, fixed in 10% formalin solution, and paraffin sections prepared and stained with H&E to evaluate the degree of tubular necrosis and injury.
Three groups of rats were studied. Group 1 rats were treated with vehicle and served as the control animals. Group 2 rats were treated with HET0016 (5 mg/kg, s.c.) 30 minutes prior to renal ischemia. Group 3 rats were given 5, 14-20-HEDE (WIT003) (10 mg/kg, s.c.) by injection 30 minutes prior to renal ischemia.

[2] = system: renal I/R injury in SD rats; assay: Renal I/R injury model (Example 3): plasma creatinine, tubular injury, TUNEL; type: in vivo, rat; conditions: for area occupied by necrotic tubular epithelium or cast material (tubular injury score): compared to vehicle or HET0016-treated animals; for histological appearance of tubular injury (H&E, fluorescence microscopy): corticomedullary junction; for plasma creatinine: SD rats, 24 h after 30 min ischemia, s.c. 30 min prior: HET0016 5 mg/kg, 5,14-20-HEDE 10 mg/kg, 5,14-20-HEDGE 1 mg/kg; for effect on plasma creatinine 24 hours following renal I/R injury: HET0016 5 mg/kg s.c., 5,14-20-HEDGE 1 mg/kg s.c.
Description: Renal I/R Injury Model: Rats were anesthetized with ketamine (50 mg/kg, i.m.) and sodium pentobarbital (50 mg/kg, i.p) and were placed on a heated surgical table to maintain body temperature at 37° C. A midline abdominal incision was made to expose the kidneys, and the renal arteries and veins were bilaterally occluded for 30 minutes using microvascular clamps. The clamps were then removed, the abdominal incision was closed, and the rats were allowed to recover for 24 hours. Rats were then euthanized with sodium pentobarbital (100 mg/kg, i.p.), and blood was collected from the aorta for measurement of plasma creatinine concentration using the Jaffe reaction. Both kidneys were collected for histological analysis.
In addition, the method was repeated on four groups of rats. However, rats were pretreated with a s.c. injection of vehicle or one of three treatments 30 minutes prior to induction of renal ischemia. Group 1 served as the control group and received 1 ml/kg of a vehicle (11% sulfobutyl-•-cyclodextrin in 165 mM mannitol solution, […].); Group 2 received HET0016 (5 mg/kg, s.c.); Group 3 received 5, 14-20-HEDE (10 mg/kg; s.c.); and Group 4 received 5, 14-20-HEDGE (1 mg/kg; s.c.).
Analysis of the degree of tubular injury: The kidneys of rats subjected to renal I/R injury were fixed in 10% formalin and paraffin sections (3•m) were prepared and stained with hematoxylin and eosin. The sections were examined at low power using a 2× objective of an Olympus BHT-2 (Olympus; Center Valley, Pa.) epifluorescent microscope equipped with a 540-nm excitation filter and a 590-nm emission filter. For each specimen, five randomly chosen outer medullary fields were photographed at 100× magnification using a digital color camera and following appropriate thresholding. The percentage of the area containing fluorescent necrotic tubular epithelium or cast material was quantified using Image-Pro Plus image analysis software (version 6.2; Media Cybernetics, Inc.; Bethesda, Md.). TUNEL labeling was also performed to assess the degree of apoptosis following renal LIR injury using an ApopTag Plus In Situ Apoptosis Fluorescein Detection Kit (Chemicon International; Temecula, Calif.) following the manufacturer's protocol. Apoptotic nuclei were visualized at approximately 100× by fluorescence microscopy and quantified using Metamorphi Image Analysis Software (Molecular Devices Corp.; Dowington, Pa.). A total of five fields were analyzed per section, with one section analyzed per animal. Data were expressed as the percentage of TUNEL positive nuclei per total number of DAPI stained cells.

[3] = Plasma levels of the 20-HETE analogs after s.c. injection (LC/MS); type: in vivo, rat; conditions: rats, 10 mg/kg s.c.; for peak blood levels: 10 mg/kg
Description: Measurement of plasma levels of the 20-HETE analogs: A chronic polyvinyl catheter was implanted into the jugular vein and exteriorized at the back of the neck of SD rats several days prior to an experiment. After a three-day recovery period, the rats (n=4 in each group) received a s.c. injection of either 5, 14-20-HEDE (10 mg/kg) or 5, 14-20-HEDGE (10 mg/kg), and blood samples were collected 1, 4, 8 and 24 hours after administration. Plasma levels of 5, 14-20-HEDE and 5, 14-20-HEDGE were measured by liquid chromatography-mass spectrometry (LC/MS) using an Applied Biosystems API 3000 LC/MS/MS (Foster City, Calif.).

renal I/R injury in rats = assay: Renal hemodynamics (laser-Doppler flowmetry, arterial pressure) during and after renal I/R; type: in vivo, rat
Description: Assessment of renal hemodynamics: Additional experiments were performed to determine if the renoprotective effect of 5, 14-20-HEDGE on renal I/R injury was associated with changes in renal cortical and medullary hemodynamics. Rats were anesthetized with ketamine (50 mg/kg, i.m.) and Inactin (100 mg/kg, i.p.; Sigma; St. Louis, Mo.). Catheters were placed in the femoral artery for continuous measurement of arterial pressure and in the femoral vein for i.v. infusions. The left kidney was then exposed and placed in a kidney holder and a single-mode optical fiber was implanted 4 mm into the kidney for measurement of MBF by laser-Doppler flowmetry (LDF) as previously described. See, Zou A, et al., J. Hypertens. 13:557-566 (1995). CBF was measured by a second laser-Doppler probe held in static position by a micromanipulator 1 mm above the renal cortex. After surgery and a 30-minute stabilization period, MAP, CBF and MBF were continuously recorded using WinDaq data acquisition software (DATAQ Instruments Inc.; Akron, Ohio) during a 5-minute control period. Baseline MAP, MBF and CBF were determined and then 5, 14-20-HEDGE (1 mg/kg s.c.) or vehicle (1 ml/kg s.c.) were administered. Thirty minutes later, the blood supply to the left kidney was occluded for 45 minutes. MAP, MBF and CBF were recorded during ischemia and for 3 hours following reperfusion.

[4] = 1 mg/kg s.c., vs vehicle, listed as 5, 14-20-HEDGE

| half-life [3] | peak blood levels [3] | Structure (SMILES) | Palb after TGF-•1 in glomeruli pretreated with 20-HETE analog (isolated glomeruli; glomeruli from Dahl S rats fed HS diet for 4 days, TGF-•1 10 ng/ml) | Palb, baseline after pretreatment with 20-HETE analog (isolated glomeruli; glomeruli from Dahl S rats fed HS diet for 4 days, before TGF-•1) | baseline Palb after pretreatment of glomeruli (isolated glomeruli; glomeruli pretreated with 1 μmol/L for 15 minutes at 37° C., SD rats) | increase in Palb produced by TGF-•1 after pretreatment of glomeruli (isolated glomeruli; SD rats, listed as 20-HETE analog) | increase in Palb produced by TGF-•1 after pretreatment of glomeruli (isolated glomeruli; SD rats, listed as WIT003) | histological damage to S3 segment of the proximal tubule ([1]; 10 mg/kg s.c., data not shown) | degree of renal I/R injury reflected by rise in plasma creatinine concentration [1] | reduction of plasma creatinine ([2]; 10 mg/kg s.c., 24 h after renal I/R, vs vehicle) | area occupied by necrotic tubular epithelium or cast material (tubular injury score) ([2]; 24 h after renal I/R, listed as 5, 14-20-HEDE) | histological appearance of tubular injury (H&E, fluorescence microscopy) ([2]; 24 h after renal I/R) | plasma creatinine [2] | number of apoptotic nuclei (TUNEL staining) ([2]; 24 h after renal I/R, 1 mg/kg s.c., vs vehicle) | area occupied by necrotic tubular epithelium or cast material (tubular injury score) ([2]; 24 h after renal I/R) | effect on plasma creatinine 24 hours following renal I/R injury ([2]; vs vehicle) | CBF or MBF prior to the induction of renal ischemia (renal I/R injury in rats; 1 mg/kg s.c.) | post-ischemic medullary blood flow (MBF) (renal I/R injury in rats; 1 mg/kg s.c. 30 min before 45 min ischemia, 3 h reperfusion, vs vehicle, listed as 5, 14-20-HEDGE) | mean arterial pressure (MAP) (renal I/R injury in rats; [4]) | post-ischemic cortical blood flow (CBF) (renal I/R injury in rats; [4]) |
| --- | --- | --- | --- | --- | --- | --- | --- | --- | --- | --- | --- | --- | --- | --- | --- | --- | --- | --- | --- | --- |
| approximately four | 300 ng/ml and approximately 1 μM | O=C(O)CCC/C=C\CCCCCCC/C=C\CCCCCO [5,14-20-HEDE, 20-hydroxyeicosa-5(Z),14(Z)-dienoic acid] | 0.40±0.01 | 0.25±0.01 | reduced | greatly attenuated | opposed | reduced | significantly reduced | approximately 50% | less severe renal injury; also recorded: marked reduction | less severe renal injury with only focal tubular necrosis or exfoliation of tubular cells | 1.6 ± 0.3 mg/dL |  |  |  |  |  |  |  |
| approximately four | 300 ng/ml and approximately 1 μM | O=C(O)CNC(=O)CCC/C=C\CCCCCCC/C=C\CCCCCO [5,14-20-HEDGE, N-[20-hydroxyeicosa-5(Z),14(Z)-dienoyl]glycine] |  |  |  |  |  |  |  |  |  | less severe renal injury with only focal tubular necrosis or exfoliation of tubular cells | 0.5 ± 0.02 mg/dL | significantly less | less severe renal injury; also recorded: marked reduction | nearly completely prevent the rise | did not have a significant effect | completely prevented the post-ischemic fall in MBF | without altering; also recorded: no effect | without altering; also recorded: no effect |
|  |  | CCCCc1ccc(N=CNO)c(C)c1 [HET0016, N-hydroxy-N′-(4-butyl-2-methylphenol)-formamidine, reference compound] |  |  |  |  |  |  | significantly greater |  |  | Diffuse tubular cell denudation, tubular cell necrosis, intratubular debris and tubular casts were present | 3.8 ± 0.3 mg/dL |  |  | significant increase |  |  |  |  |
